{"source": "patent US9505771B2", "about": "“Stable micronised monoclin form of asenapine maleate and its synthesis” (Laboratories Lesvi S.L., priority 2011, dated 2016)", "key": {"[1]": {"experiment": "PXRD determination of orthorhombic form content in the micronised product", "assay_type": "physicochemical", "conditions": "for orthorhombic form contained in the micronised product, as determined by PXRD / polymorphic purity (monoclinic form) of the micronised product: after micronisation; for % of orthorhombic form in the micronised product: directly after micronisation, before storage", "method": "(§1) Powder X-Ray Diffraction (PXRD) patterns were acquired on a D8 Advance Series 2Theta/Theta powder diffraction system using CuKα-radiation in transmission geometry. The system was equipped with a VANTEC-1 single photon counting PSD, a Germanium monochromator, a ninety positions auto changer sample stage, fixed divergence slits and radial soller. Programs used: Data collection with DIFFRAC plus XRD Commander V.2.5.1 and evaluation with EVA V.12.0. The samples were prepared and placed in standard sample holders using two foils of polyacetate. Five hours scans in a range from 8° to 20° in 2θ were carried out."}, "[2]": {"experiment": "Stability assays of the micronised samples (polymorphic stability on storage, PXRD)", "assay_type": "physicochemical", "conditions": "transparent and opaque vacuum containers; for % of orthorhombic form after 1 months / % of orthorhombic form after 3 months: 40° C.-75% RH; for % of orthorhombic form after 2 months: 25° C.-60% RH", "method": "During the storage period of 1 month, 2 months or 3 months, a temperature of 25° C. and a relative humidity of 60%, or a temperature of 40° C. and a relative humidity of 75%, may be used. For such tests, the samples may be placed into either or both of transparent and opaque vacuum containers. […] The monoclinic and orthorhombic forms of asenapine maleate were characterised, and thus distinguished, by the powder X-ray diffraction pattern (PXRD) of the asenapine maleate, as described in EP 1710245.\nas §1\nStability assays of the new stable monoclinic form of asenapine maleate obtained as described above were performed after 1 month, 2 months and 3 months. The samples were placed into two different types of containers, transparent and opaque vacuum containers. The stability tests were carried out at two different storage conditions, 25° C. and 60% relative humidity (RH), and at 40° C. and 75% RH."}}, "note": "Structures can show the parent of a compound that is named as a salt."}
{"smiles": "CN1C[C@@H]2c3ccccc3Oc3ccc(Cl)cc3[C@H]2C1", "note": "(racemic) [Example 2, asenapine maleate]", "values": [{"measurement": "orthorhombic form contained in the micronised product, as determined by PXRD", "setting": "[1]", "value": "about 5 % by weight"}, {"measurement": "% of orthorhombic form in the micronised product", "setting": "[1]", "value": 5, "unit": "%"}, {"measurement": "% of orthorhombic form after 1 months", "setting": "[2]", "value": 9, "unit": "%"}, {"measurement": "% of orthorhombic form after 3 months", "setting": "[2]", "value": 13, "unit": "%"}]}
{"smiles": "CN1C[C@@H]2c3ccccc3Oc3ccc(Cl)cc3[C@H]2C1", "note": "(racemic) [Example 2.1, asenapine maleate]", "values": [{"measurement": "% of orthorhombic form in the micronised product", "setting": "[1]", "value": "<1", "unit": "%"}, {"measurement": "% of orthorhombic form after 2 months", "setting": "[2]", "value": 5, "unit": "%"}, {"measurement": "% of orthorhombic form after 1 months", "setting": "[2]", "value": 8, "unit": "%"}, {"measurement": "% of orthorhombic form after 3 months", "setting": "[2]", "value": 12, "unit": "%"}]}
{"smiles": "CN1C[C@@H]2c3ccccc3Oc3ccc(Cl)cc3[C@H]2C1", "note": "(racemic) [Example 3, asenapine maleate]", "values": [{"measurement": "orthorhombic form contained in the micronised product, as determined by PXRD", "setting": "[1]", "value": "about 3 % by weight"}, {"measurement": "% of orthorhombic form in the micronised product", "setting": "[1]", "value": 3, "unit": "%"}, {"measurement": "% of orthorhombic form after 1 months", "setting": "[2]", "value": 5, "unit": "%"}, {"measurement": "% of orthorhombic form after 3 months", "setting": "[2]", "value": 8, "unit": "%"}]}
{"smiles": "CN1C[C@@H]2c3ccccc3Oc3ccc(Cl)cc3[C@H]2C1", "note": "(racemic) [Example 3.1, asenapine maleate]", "values": [{"measurement": "% of orthorhombic form in the micronised product", "setting": "[1]", "value": "<1", "unit": "%"}, {"measurement": "% of orthorhombic form after 2 months", "setting": "[2]", "value": 3, "unit": "%"}, {"measurement": "% of orthorhombic form after 1 months", "setting": "[2]", "value": 4, "unit": "%"}, {"measurement": "% of orthorhombic form after 3 months", "setting": "[2]", "value": 7, "unit": "%"}]}
{"smiles": "CN1C[C@@H]2c3ccccc3Oc3ccc(Cl)cc3[C@H]2C1", "note": "(racemic) [Example 4, asenapine maleate]", "values": [{"measurement": "orthorhombic form contained in the micronised product, as determined by PXRD", "setting": "[1]", "value": "less than 1 % by weight"}, {"measurement": "polymorphic purity (monoclinic form) of the micronised product", "setting": "[1]", "value": "> 99", "unit": "% by weight"}, {"measurement": "% of orthorhombic form in the micronised product", "setting": "[1]", "value": "<1", "unit": "%"}]}
{"smiles": "CN1C[C@@H]2c3ccccc3Oc3ccc(Cl)cc3[C@H]2C1", "note": "(racemic) [Example 5, asenapine maleate]", "values": [{"measurement": "orthorhombic form contained in the micronised product, as determined by PXRD", "setting": "[1]", "value": "less than 1 % by weight"}, {"measurement": "polymorphic purity (monoclinic form) of the micronised product", "setting": "[1]", "value": "> 99", "unit": "% by weight"}, {"measurement": "% of orthorhombic form in the micronised product", "setting": "[1]", "value": "<1", "unit": "%"}]}
{"smiles": "CN1C[C@@H]2c3ccccc3Oc3ccc(Cl)cc3[C@H]2C1", "note": "(racemic) [Example 6, asenapine maleate]", "values": [{"measurement": "orthorhombic form contained in the micronised product, as determined by PXRD", "setting": "[1]", "value": "less than 1 % by weight"}, {"measurement": "polymorphic purity (monoclinic form) of the micronised product", "setting": "[1]", "value": "> 99", "unit": "% by weight"}]}
